For 91 molecules, melting point results are on record in a melting point compilation (Tetko et al.; mined from patent text by program, amines drawn as free bases though some values may be those of a salt).

The melting point is the temperature, or range, at which the solid turns liquid.

`C=CCn1c(C)c(C)c2cnnc(OCc3ccc(F)cc3)c21` came in with a melting point of 125 to 126 °C.
`CC12CC(=O)C3C(CCC4CC(O)CCC43C)C1CCC2C(=O)CCc1ccccn1` (stereo unspecified) came in with a melting point of 179 to 180 °C.
With `COc1ccc(C(=O)c2c(N)sc3c2CCC3)c2ccccc12`, the melting point lay within 214 to 215 °C.
`CCN(CC)C(C)CN1CCc2c(c(=O)oc3c(OC)c(OC)ccc23)C1` (stereo unspecified): the melting point was 99 to 100 °C.
In the case of `O=C1NC(=O)C(Nc2ccc(CCNC[C@H](O)c3ccccc3)cc2)S1` (stereo partly specified), the melting point came to 55 °C.
`O/N=C1\CCCc2c1c1ccccc1n2-c1ccc(O)cc1` had a melting point of 227 to 229 °C.
`Cc1nc(NC(=O)NS(=O)(=O)c2ccccc2OC(Cl)=CCl)nc2c1CCO2`: the melting point fell in the range of 208 to 210 °C.
In turn, `CSc1ccc(C(=O)Nc2ccccc2)cc1N` returned a melting point of 143 to 145 °C.
The molecule `Nc1ccc(CCC(=O)Nc2ccc(C(=O)c3ccccc3)cc2)cc1N` yielded a melting point of 156 to 157 °C.
In turn, `CCOC(=O)c1cc2n(n1)CCCO2` came in with a melting point of 44 to 46 °C.
`CC(=O)Nc1ccccc1C(=O)C1CCCCC1` came in with a melting point of 66 °C.
With `Nc1ncc(-c2cnc3ccc(-c4ccc(OCC5(NC(=O)OCc6ccccc6)COC5)cc4)nn23)cc1C(F)(F)F` the figure was 202 to 203 °C; with `COc1ccc(C(O)CSCc2ccncc2)cc1` (stereo unspecified), 70 to 72.5 °C; with `CC12CCC(O)CC1=CCC1C2CCC2(C)C1CCC2n1ccnc1` (stereo unspecified), 255 to 258 °C.
With `Nc1sc2c(c1C(=O)c1cccc(C(F)(F)F)c1)CCN(CCCc1ccccc1)C2` the figure was 176 to 178 °C; with `CN1CC(C(=O)COC(=O)c2cccnc2)CC2c3cccc4[nH]cc(c34)CC21` (stereo unspecified), 172 to 174 °C.
`CCc1nnc2c(OC)nc3cc(OC)ccc3n12` registered a melting point of 184 to 188 °C.
For the molecule `COc1cccc(SCCC(=O)O)c1`, the melting point is 39 to 42 °C.
For the molecule `O=C(O)c1cc2cc(Cl)ccc2nc1N[C@@H](Cc1ccc([N+](=O)[O-])cc1)C(=O)O`, the melting point is 174 to 176 °C.
As to `O=c1nc(-c2ccccn2)sc2cccc(F)c12`, the melting point lay in the range of 256 to 257 °C.
In turn, `CCCC(=O)c1cnc2c(OCCOC)cccc2c1Nc1ccc(F)cc1C` gave a melting point of 124 to 125 °C.
In turn, `CNC(=O)C(NC(=O)c1ccc(F)cc1C(F)(F)F)C(O)CSc1cccc(F)c1` (stereo unspecified) came in with a melting point of 172 °C.
Turning to `Cc1noc(C=Cc2ccccc2O)n1`, the melting point was 184 to 186 °C.
As to `NC(=NO)c1c(F)ccc(OCc2nc3cc(Cl)ccc3s2)c1F`, the melting point was in the range of 169 to 170 °C.
In turn, `CCCOc1ccc(CCCCCCC(=O)O)cc1` yielded a melting point of 49 to 50 °C.
With `CS(=O)(=O)c1ccc(-n2nc(C(F)(F)F)cc2-c2ccc(-c3cscn3)cc2)cc1F` the figure was 125 to 127 °C; with `CCOC(=O)CC(=O)Sc1cc(Cl)c(Cl)cc1Cl`, 41 to 43 °C.
`C[C@@H]1N=C(c2ccccc2F)c2c(ccc(N)c2Cl)N(C)C1=O`: the melting point fell in the range of 222 to 226 °C.
`Fc1cccc(F)c1C1=NC(c2ccc(C#Cc3ccc(Cl)cc3)cc2)CO1` (stereo unspecified): the melting point lay in the range of 155 to 156 °C.
Under `O[C@H](COc1cccc2[nH]ccc12)CN1CCC(c2c[nH]c3c(Cl)cccc23)CC1` stands 186 to 189 °C.
In turn, `CCOC(=O)c1cn(C2Cc3cc(F)ccc3C2=O)c(C(=O)OCC)n1` (stereo unspecified) returned a melting point of 138 °C.
`CCCNC(=O)C(C#N)=NNc1ccccc1-c1ccccc1`: the melting point was 180 to 184 °C.
Take `CC(=O)N1c2ccccc2CC1c1cc(Cl)ccc1NC(=O)C(C)(C)C` (stereo unspecified): the melting point is 131 to 134 °C.
Molecule `O=S1CCc2nc(N3CCN(c4ccccc4)CC3)nc(Nc3cccc(Cl)c3)c21` (stereo unspecified) registered a melting point of 230 to 231 °C.
On to `C[N+]1([O-])CC(c2ccccn2)C(=O)c2ccccc21` (stereo unspecified), for which the melting point lay in the range of 132 to 134 °C.
The molecule `CN(CC(=O)O)S(=O)(=O)c1ccc(Cl)cc1` had a melting point of 180 to 182 °C.
Consider `Cc1cc(C2=NOC(C)(c3cc(Cl)cc(Cl)c3)C2)ccc1C(=O)NCC(O)CO` (stereo unspecified), for which the melting point amounted to 98 °C.
Regarding `O=C(O)c1nc2n(n1)-c1ccccc1N(c1cccc(C(F)(F)F)c1)C2`, the melting point lay in the range of 204 to 206 °C.
`CC(C)CC(C)(C(=O)NC1CCCCCCCCCCNC1=O)c1ccccc1S` (stereo unspecified) came in with a melting point of 166 to 171 °C.
With `CCc1cc(C)nc2c(C)ccc([N+](=O)[O-])c12` the figure was 89 to 90 °C; with `Cc1cc(-c2c[nH]cc2C#N)c(Cl)cc1F`, 132 to 133 °C; with `Cc1c(-c2ccccc2)nc2ccccc2c1C(=O)N[C@@H](C)C1CCCCC1`, 177 to 180 °C.
With `NC(=O)N(O)CCNC(=O)COc1cccc(Oc2ccccc2)c1` the figure was 153 to 155 °C; with `CCOC(=O)c1c(C)nc2ccn(-c3ccc(Cl)cc3)n2c1=O`, 175 to 177 °C.
Turning to `C=CC1CN(c2ncc(C(=O)N(C)c3cccc(C(F)(F)F)c3)c(N)n2)C(=O)N1` (stereo unspecified), the melting point fell in the range of 203 to 204 °C.
Under `CCCCOc1cc(-c2cc3ccccc3[nH]2)ccc1O` stands 163 °C; under `CCn1c(=O)c2c(nc(/C=C/c3ccc(OCCCCN=[N+]=[N-])cc3)n2C)n(CC)c1=O`, 158 to 159 °C.
With `Cc1c(OC(F)F)ccnc1CSc1nc2ccc(O)cc2[nH]1` the figure was 214 to 215 °C; with `CC(C)(C)c1cc(-c2noc(=O)[nH]2)cc(C(C)(C)C)c1O`, 189 to 191 °C.
Regarding `Oc1cc2[nH]c3ccccc3c2cc1O`, the melting point lay within 279 to 283 °C.
With `O=C(COc1cc(-c2ccc([N+](=O)[O-])cc2)nc2cccc(C(F)(F)F)c12)N1CCOCC1` the figure was 222 °C.
As to `N#Cc1cccc(C(=O)c2ccc(C3CCCCC3)cc2)c1`, the melting point lay in the range of 73 to 74 °C.
`NC[C@@H]1CNc2cccc(-c3cc(Cl)ccc3Cl)c2O1` showed a melting point of 130 °C.
For the molecule `OC(CCN1CC=C(c2ccc(Cl)cc2)CC1)c1cccc2ccccc12` (stereo unspecified), the melting point fell in the range of 122 to 123 °C.
With `CNS(=O)(=O)OCCOc1ccc(-n2ccnc2)cc1`, the melting point was in the range of 85 to 88 °C.
With `CCc1c(N)c(C(N)=O)nn1CCOC`, the melting point came out at 131 °C.
Molecule `CCCCC1CCC(c2ccc(C(=O)CC(=O)C(F)(F)F)cc2)CC1` (stereo unspecified) displayed a melting point of 65 °C.
Under `CN(C)c1ccc(/C=C/c2c(F)cc(F)cc2F)cc1` stands 127 to 128 °C; under `CCOC(=O)c1cc2c(cn1)[nH]c1ccc(N3CCCC3)cc12`, 259 to 261 °C; under `Oc1ccc(-c2ncc3ncc(-c4ccco4)cc3n2)cc1`, 261 to 263 °C.
With `CCN1C[C@@H](O)[C@H](N(C)C(=O)c2ccc([N+](=O)[O-])cc2)C1` (relative stereo) the figure was 104 to 108 °C.
Take `CCCCCCCCCCCCCCCC(=O)NC(CCCCCCCCCCCCCCC)CC(=O)NCCC(=O)NC(Cc1ccccc1)C(=O)O` (stereo unspecified): the melting point lay in the range of 169 to 174 °C.
Turning to `Nc1nc(-n2cc(C(=O)O)c(=O)c3cc(F)c(F)c(Cl)c32)ccc1F`, the melting point is 232 to 235 °C.
On to `O=C(Nc1ccc(-c2nnn[nH]2)cc1)C(F)(F)C(F)(F)C(F)(F)F`, for which the melting point was 266 to 268 °C.
`[N-]=[N+]=NC[C@H]1CN(c2ccc(Br)cn2)C(=O)O1`: the melting point was in the range of 64 to 67 °C.
On to `C=CC[C@H]1C(=O)N(S(C)(=O)=O)[C@H]2CCN(C(=O)OCc3ccccc3)[C@H]12` (relative stereo), for which the melting point was 92 to 94 °C.
With `NC(Cc1ccccc1)C(O)C1=NCCS1` (mixture of isomers) the figure was 82.3 to 90 °C; with `O=C1CCC(c2ccccc2)(c2ccccc2)C2CN(C(Cc3ccccc3)=NC(c3ccccc3)c3ccccc3)CC12` (stereo unspecified), 172 °C.
In the case of `O=C1CCN(C(=O)c2ccc(Cl)cc2Cl)c2c(Cl)cccc21`, the melting point is 157 to 159 °C.
For the molecule `COc1ccc(CNc2c(C)c(C)c3c(c2C)C(c2ccc(F)cc2)C(C)(C)O3)cc1` (stereo unspecified), the melting point was in the range of 114 to 115 °C.
`CNC(=O)c1c(N)n(C2CCCC2)c2nc(Cl)ccc2c1=O` gave a melting point of 256 to 258 °C.
`Nc1nc2ccccc2c2c1nc1n2C(CO)COC1` (stereo unspecified) returned a melting point of 239 to 240 °C.
Regarding `O=CC12CC3CC(CC(C3)C1)C2`, the melting point is 132 to 135 °C.
As for `O=C1N(C/C=C/C=C/c2ccccc2Cl)CCN1c1cccnc1`, the melting point was in the range of 130 to 133 °C.
With `CN1C(=O)O[C@@H](c2ccc(F)cc2)[C@H]1Cc1ccc(C(F)(F)F)cc1` (racemic), the melting point fell in the range of 77 to 78 °C.
`COC(=O)C(=C\c1c(OC)cc(OC)cc1OC)/C(=C\c1ccccc1)C(=O)O` registered a melting point of 208 to 210 °C.
With `CCCc1nn(-c2ccc(C(F)(F)F)cn2)cc1CCCOc1ccc(OC)c(CC(=O)O)c1` the figure was 135 to 136 °C; with `CCOCc1c(C)nc2c3cccc(Cl)c3ccn12`, 94 to 96 °C; with `COC(=O)Cc1ccc(OC[C@@H](C)NC[C@H](O)c2ccccc2)cc1`, 69 to 70 °C.
Take `CCCCOc1ccccc1-c1ncc(-c2nnn[nH]2)c(=O)[nH]1`: the melting point was in the range of 244 to 247 °C.
The molecule `CCN1C(=O)Cc2cc3c(cc21)C(=O)CO3` displayed a melting point of 181 to 184 °C.
The molecule `ClCc1cn2cccc(OCc3ccccc3)c2n1` came in with a melting point of 163 °C.
`COc1cccc2c1OC(COS(=O)(=O)c1ccc(C)cc1)CC2` (stereo unspecified): the melting point is 115 to 117 °C.
Molecule `Cc1oc(-c2ccco2)nc1COc1ccc(CCl)cn1` showed a melting point of 95 to 96 °C.
`CON(C)Cc1nc2c(N)nc3cc(OCc4ccccc4)ccc3c2n1CC1CCOCC1` returned a melting point of 159 to 161 °C.
Molecule `CCn1cc(C(=O)O)c(=O)c2cc(F)c(-c3ccnc(CN)n3)c(F)c21` registered a melting point of 285 to 289 °C.
`O=C1CCN(Cc2ccccc2)C(=O)C1=C1SC=CS1` registered a melting point of 122 to 124 °C.
Under `CN1CCN(CCC2C(=O)NC(c3ccc(Cl)cc3)c3ccccc32)CC1` (stereo unspecified) stands 201 to 205 °C; under `COc1cc2cnn(CCO)c(=O)c2cc1OC`, 174 to 176 °C.
With `CN(C)C(=O)CC1(C)OCCC2=C1c1ccccc1C2` (stereo unspecified) the figure was 112 to 114 °C; with `Nc1nnc(SCc2ccc(Cl)cc2)s1`, 162 to 164 °C.
